Experimental data: US20040254629A1, “Methods and apparatus for treatment of aneurysmal tissue” (priority 2003, published 2004)

What was measured:
[1] = tested on: IL-1α expression in stimulated human-derived white blood cells; experiment: Combination therapeutic assay, IL-1α content; type: cell-based; details: DOX at 5.69 ug/ml, DEX at 1 ug/ml, alone or combined; 24 hours at 37° C.
Protocol: To assay for cytokine concentration, the solution in each test well was transferred to microcentrifuge tubes and centrifuged (3000 rpm) for 5 minutes to pellet any cells that were drawn from the wells. The supernatants were then transferred to fresh tubes and stored in a minus 85° C. freezer until used. The cytokine content in the stored supernatants was determined using commercially available cytokine ELISA- (enzyme linked immunosorbent assays) based assays from, for example, R&D Systems, Minneapolis, Minn., using the manufacturer's instructions. Essentially, the procedure was as follows: first, 200 μl of the test samples were added to each well of the microplates. The wells of the microplates were precoated with monoclonal antibodies specific to the cytokine being analyzed. All lipopolysaccharide-(LPS) treated samples were diluted 1:10 in RPMI growth media prior to the assay. The plates were covered and incubated for 2 hours at room temperature. Each well was then washed three times with wash buffer (350 μl/well), and 200 μl of cytokine conjugate were added to each well, covered, and incubated for 1 hour at room temperature. Next, 200 μl of substrate solution were added to each well and incubated for 20 minutes at room temperature. […] The optical density readings of the color development were determined in a microplate reader set at 450 nm wavelength. […]

[2] = tested on: MMP-9 secretion from PHA-stimulated human white blood cells; experiment: MMP assay: effect of doxycycline on MMP-9 secretion from PHA-stimulated human white blood cells; type: cell-based; details: PHA 10 μg/ml
Protocol: To perform an MMP assay to assess the effect of doxycycline on human-derived white blood cells, cells were seeded into 24 well tissue culture plates. The drug concentrations selected for the experiment were based on measured tissue levels of doxycycline following an oral dose of 100 mg. The cells were exposed to the drugs under two schemes. In scheme 1, the cells, the stimulant and the drug were all added at the same time and allowed to incubate for a period of 24 hours. In scheme 2 the cells were preconditioned with the drug for a period of 24 hours and then stimulated with PHA for an additional 24 hours. In this case the total experimental time duration was 48 hours. The seeding densities: 5×10^6 cells per well and assay conditions were as follows: PHA at a working concentration of 10 μg/ml; doxycycline concentrations at 0, 2.5, 5, 10, 12, or 15 μM and either a 24 hour (scheme 1) or 48 hour (scheme 2) duration. MMP-9 analysis was performed using a Quantikine Human MMP-9 (total) Immunoassay (R&D Systems, #DMP900).

[3] = Stability assay of doxycycline and dexamethasone in combination; type: physicochemical; details: DOX (56.9 ug/ml)+DEX (10 ug/ml) mixture, 4 days at 37° C.
Protocol: A stability assay was first performed to ascertain whether doxycycline and dexamethasone react with one another. High concentrations of each solution were combined (DOX (56.9 ug/ml)+DEX (10 ug/ml)) and allowed to incubate for 4 days at 37° C. in an orbital shaker. At the end of four days the concentrations of each drug in the mixture was determined by spectrophotometry and compared to the original concentrations.

[4] = tested on: MMP-9 expression in stimulated human-derived white blood cells; experiment: Combination therapeutic assay, MMP-9 content; type: cell-based; details: DOX at 5.69 ug/ml, DEX at 1 ug/ml, alone or combined; 24 hours at 37° C.
Protocol: Next, to test the effect of therapeutics in combination, assays were performed to determine the effect of doxycycline alone (DOX at 5.69 ug/ml); dexamethasone alone (DEX at 1 ug/ml) and the effect of a combination of doxycycline and dexamethasone (DOX at 5.69 ug/ml)+DEX at 1 ug/ml). Dexamethasone is a potent agent with broad anti-inflammatory (against cytokines, chemokines, prostaglandins, etc.) and immunosuppressive properties. Dexamethasone also has known anti-angiogenic properties. Doxycycline was used as the MMP inhibitor for these studies.
Briefly, human-derived white blood cells were placed in a 24 well plate and exposed to a stimulant (PHA or lipopolysaccharide (LPS)) and the three different treatment regimes for a period of 24 hours at 37° C. The supernatants were then collected and assayed for MMP-9 and IL-1 content.

[5] = cited from earlier work; for elimination / clearance route: in vivo
[6] = biological target: ACE (Homo sapiens, UniProt P12821); details: in vitro; cited from earlier work
[7] = tested on: MMP-9 secretion from human-derived white blood cells; experiment: MMP assay development: effect of stimulants on MMP-9 release from human-derived white blood cells; type: cell-based; details: PHA 10 μg/ml alone, five million (5M) cells per well, 24 hours at 37° C.
Excerpt: MMP assay development involved two separate determinations. The first set of experiments established the working conditions for the assay, namely the optimal cell density and the choice and concentration of stimulant. MMP-9 is secreted by monocytes, macrophages, and neutrophils, amongst other cells; however, under non-stimulatory in vitro conditions the basal level secretion of MMP-9 by these cells is very low. Thus, for the second set of experiments (performed to determine the inhibitory effects of potential drugs or reagents), the levels of MMP secretion were raised to sufficiently high levels so that drug-mediated differences could be detected.
Human-derived white blood cells were isolated from human blood by a procedure such as that described above. The total cell population was adjusted and added to 24 well polystyrene tissue culture plates in the following cell densities: 5 million, 2 million, 1 million and 0.5 million per well. The stimulants used to stimulate MMP secretion were PMA (phorbol 12-myristate 13-acetate, Sigma #P8139) at a working concentration of 100 nM; PHA (phythohemagglutinin, Sigma #L9017) at a working concentration of 10 μg/ml; and PMA (100 nM)+PHA (10 μg/ml). […] The secreted MMP was determined by ELISA using a Quantikine Human MMP-9 (total) Immunoassay (R&D Systems, #DMP900).

Sequence of ACE (P12821 30-1306, species assumed): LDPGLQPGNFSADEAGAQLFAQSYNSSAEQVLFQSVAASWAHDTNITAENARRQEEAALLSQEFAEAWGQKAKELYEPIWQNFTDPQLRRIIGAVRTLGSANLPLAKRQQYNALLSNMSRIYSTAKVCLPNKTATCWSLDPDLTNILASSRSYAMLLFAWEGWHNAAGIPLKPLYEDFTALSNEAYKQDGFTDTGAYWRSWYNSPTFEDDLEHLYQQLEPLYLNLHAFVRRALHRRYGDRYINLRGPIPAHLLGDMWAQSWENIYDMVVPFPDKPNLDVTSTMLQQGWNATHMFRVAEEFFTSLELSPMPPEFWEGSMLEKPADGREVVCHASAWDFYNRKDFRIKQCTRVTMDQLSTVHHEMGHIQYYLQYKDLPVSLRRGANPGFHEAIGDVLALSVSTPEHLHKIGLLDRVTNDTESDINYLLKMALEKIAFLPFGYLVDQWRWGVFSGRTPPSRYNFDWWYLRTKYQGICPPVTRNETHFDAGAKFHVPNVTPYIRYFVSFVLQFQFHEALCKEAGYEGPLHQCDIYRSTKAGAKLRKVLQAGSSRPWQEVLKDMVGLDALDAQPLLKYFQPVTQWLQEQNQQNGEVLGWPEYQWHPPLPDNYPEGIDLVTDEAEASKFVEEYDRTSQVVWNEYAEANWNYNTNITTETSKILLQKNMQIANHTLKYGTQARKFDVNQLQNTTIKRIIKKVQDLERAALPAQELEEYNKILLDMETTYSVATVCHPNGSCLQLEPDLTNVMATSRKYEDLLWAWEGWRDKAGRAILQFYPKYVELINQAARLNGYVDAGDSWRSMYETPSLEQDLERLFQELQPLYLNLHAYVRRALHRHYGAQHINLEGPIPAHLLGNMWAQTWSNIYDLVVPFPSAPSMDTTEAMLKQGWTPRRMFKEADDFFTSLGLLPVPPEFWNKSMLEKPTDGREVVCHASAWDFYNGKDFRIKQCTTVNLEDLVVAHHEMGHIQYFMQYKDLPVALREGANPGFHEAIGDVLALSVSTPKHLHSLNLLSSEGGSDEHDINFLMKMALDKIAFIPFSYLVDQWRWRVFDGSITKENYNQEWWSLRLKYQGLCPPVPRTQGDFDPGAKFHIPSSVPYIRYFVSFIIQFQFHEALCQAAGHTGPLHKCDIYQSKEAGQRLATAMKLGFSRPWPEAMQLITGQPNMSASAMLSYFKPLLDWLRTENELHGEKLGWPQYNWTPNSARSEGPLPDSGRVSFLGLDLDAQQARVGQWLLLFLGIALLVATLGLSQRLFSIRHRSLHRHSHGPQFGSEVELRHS

C[C@@H]1C[C@H]2[C@@H]3CCC4=CC(=O)C=C[C@]4(C)[C@@]3(F)[C@@H](O)C[C@]2(C)[C@@]1(O)C(=O)CO [DEX, dexamethasone]
inhibition of IL expression compared to the control [1]: approximately 85%

CC1c2cccc(O)c2C(=O)C2=C(O)C3(O)C(=O)C(C(N)=O)=C(O)C(N(C)C)C3C(O)C21.O (stereo not shown) [DOX, 4-(Dimethylamino)-1,4,4a,5,5a,6,11, 12a-octahydro-3,5,10,12,12a-pentahydroxy-6-methyl-1,11-dioxo-2-naphthacenecarboxamide monohydrate]
effect on MMP-9 expression over 0-15 μM ([2]; doxycycline 0, 2.5, 5, 10, 12, or 15 μM): dose-dependent inhibitory effect | inhibition of MMP-9 expression ([2]; doxycycline at 15 μM, 5×10^6 cells per well, scheme 1 (24 hour) or scheme 2 (48 hour)): ~60% | inhibition of IL expression compared to the control [1]: no effect on inflammatory cytokine expression | Final Concentration ([3]; MES buffer): ˜56.7 ug/ml | Final Concentration ([3]; PBS buffer): ˜57.5/ml ug/ml | inhibition of MMP-9 compared to the control [4]: approximately 32%

C[C@H](CS)C(=O)N1CCC[C@H]1C(=O)O [captopril]
bioavailability ([5]; given orally): about 75%

CCC(=O)O[C@@H](O[P@](=O)(CCCCc1ccccc1)CC(=O)N1C[C@H](C2CCCCC2)C[C@H]1C(=O)O)C(C)C [fosinopril]
elimination / clearance route [5]: balanced elimination by the liver and kidneys

NCCCC[C@H](N[C@@H](CCc1ccccc1)C(=O)O)C(=O)N1CCC[C@H]1C(=O)O [lisinopril]
time of peak concentrations in the plasma ([5]; oral administration): about 7 hours | ACE inhibitor potency compared with enalaprilat [6]: slightly more potent

CCOC(=O)[C@H](CCc1ccccc1)N[C@@H](C)C(=O)N1CC2(C[C@H]1C(=O)O)SCCS2 [spirapril]
elimination / clearance route [5]: balanced elimination by the liver and kidneys

phythohemagglutinin [PHA]
increase in MMP-9 secretion over basal levels [7]: greater than 200 fold
